One data set deals with T1, Tyk2 (Homo sapiens, UniProt P29597).
T1 construct: 450 ng/ml TYK2 KD (Cama Biosciences 08-147 Lot 06CBS-3022D); purchased Cama Biosciences (so in the source)
T1 sequence (P29597 897-1176 limits assumed): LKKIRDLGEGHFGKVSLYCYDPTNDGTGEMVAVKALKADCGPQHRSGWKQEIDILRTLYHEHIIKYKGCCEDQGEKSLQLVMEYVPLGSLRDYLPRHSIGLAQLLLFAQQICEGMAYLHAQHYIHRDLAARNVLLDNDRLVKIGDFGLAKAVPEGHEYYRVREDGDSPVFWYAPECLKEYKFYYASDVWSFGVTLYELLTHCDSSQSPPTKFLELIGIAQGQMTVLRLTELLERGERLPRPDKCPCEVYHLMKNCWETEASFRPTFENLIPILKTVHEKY
In words: Tyk2 HTRF Assay. In kind it is biochemical. The protocol:
The following is an example of an assay that can be used to determine the Tyk2 inhibitory activity of a test compound.
25 μl/well DMSO is added to Columns 2 and 14 (except 28.5 μl is added to well P14 of Greiner 384-well polypropylene plate). 20 μl/well DMSO is added to all remaining wells.
5 mM compound solutions are added by addition of 5 μl of 30 mM compound to 25 μl DMSO in Columns 2 and 14 of plate. 1.5 mM reference control is prepared by addition of 1.5 μl of 30 mM JAK3 Inhibitor VI to 28.5 μl DMSO in Well P14.
Serial dilution is then performed by the following steps: (i) Compounds in Column 2 are mixed by pipetting 20 μl up and down 6X; (ii) 10 μl/well compounds in DMSO are transferred from one column to the next column for Columns 2-11; (iii) wells are mixed by pipetting 20 μl up and down 6×; (iv) tips are washed 3×25 μl DMSO, 2×25 μl next DMSO; (v) steps i-iv repeated for Columns 14-23.
(§1) The following buffers are prepared:
Assay Buffer: 50 mM HEPES pH 7.6; 1 mM DTT; 10 mM MgCl2; 0.01% Triton X100; 0.01% BSA; and 0.1 mM EDTA.
Kinase in Assay Buffer: 450 ng/ml TYK2 KD (Cama Biosciences 08-147 Lot 06CBS-3022D).
Substrate/Detection Mixture (1×ATP) in Assay Buffer: 188 nM DyLight 647-Streptavidin (Pierce 21824); 5 μM Biotin-EQEDEPEGDYFEWLE (Lyn Substrate Peptide); 750 ng/ml Eu-anti-phospho-Tyrosine (PerkinElmer AD0069); 62.5 μM ATP; 80 nM Substrate Peptide (American Peptide Company 332722).
Substrate/Detection Mixture (20×ATP) in Assay Buffer: 188 nM DyLight 647-Streptavidin; 5 μM Biotin-EQEDEPEGDYFEWLE; 750 ng/ml Eu-anti-phospho-Tyrosine; 1250 μM ATP; 80 nM Substrate Peptide.
14.5 μl/well Enzyme Mix or Dilution Buffer (Background Controls) is added to Costar 384 well black plates.
Compound addition and mixture is performed by the following steps: (i) 0.5 μl/well DMSO/compounds in DMSO is transferred from Greiner 384-well polypropylene plate to a plate containing 14.5 μl/well Enzyme Mix and Dilution Buffer; (ii) mixed by pipetting 10 μl up and down 4×; (iii) tips are washed 4×10 μl in DMSO, 2×20 μl in other DMSO; (iv) steps i-iii are repeated until all plates are completed.
10 μl/well Substrate/Detection Mixtures is added and incubated at room temperature 2 hours (on shaker for first 2+ minutes).
10 μl/well 50 mM EDTA/0.01% Triton X100 is added and incubated >15 minutes at room temperature (on shaker for first 2+ minutes).
Plates are read at 665 nm and 620 nm emission on Analyst GT protocol HTRF_SP_A (Counts= 665/620×10000).

In another data set the target is mTOR (Homo sapiens, UniProt P42345). In words: mTOR HTR-FRET Assay. It counts as biochemical. The method, boiled down: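 TOR enzyme fraction preincubated 30 min at room temperature with compound, then reaction started with GST-p70S6 kinase fragment substrate (97 nM working stock) plus ATP/Mn2+ and run 2 h at room temperature in Tris pH 7.4 buffer. Stopped with EDTA; phospho-substrate detected by HTRF antibody reagent after 5 h to overnight.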

For another data set, the target named is T2, Syk (Homo sapiens, UniProt P43405).
T2 construct: purchased Cama Biosciences (so in the source)
The data set can be described thus: Syk HTRF Assay. It counts as biochemical. The protocol: 5 μl/well DMSO is added to Column 2 Wells A-0 and 29.5 μl to well P2 of Greiner 384-well polypropylene plate. 20 μl/well DMSO is added to Columns 1 and 3-12.
25 mM compound solutions are prepared by the addition of 25 μl of 30 mM compound to Column 2 and 0.5 μl 30 mM reference control to well P2.
Serial dilution is then performed by the following steps: (i) compounds in Column 2 are mixed by pipetting 20 μl up and down 6×; (ii) 10 μl/well compounds in DMSO are transferred from one column to the next column for Columns 2-11; (iii) wells are mixed by pipetting 20 μl up and down 6×; (iv) tips washed 3×25 μl DMSO, 2×25 μl next DMSO.
as §1
Dilution Buffer: 50 mM HEPES pH 7.6; 1 mM DTT; 10 mM MgCl2; 0.01% Triton X100; 0.01% BSA; 0.1 mM EDTA.
Enzyme Mix in Dilution Buffer: 8.621 ng/ml Syk (Cama Biosciences 08-176).
Start Mix in Dilution Buffer: 87.5 μM ATP; 80 nM Substrate Peptide (American Peptide Company 332722).
14.5 μl/well Enzyme Mix or Dilution Buffer (Background Controls) is added to Costar 384-well black plates.
Compound addition and mixture is performed by the following steps: (i) 0.5 μl/well DMSO/compounds in DMSO transferred from Greiner 384-well polypropylene plate to left half of assay plate containing 14.5 μl/well Enzyme Mix and Dilution Buffer; (ii) Mix by pipetting 10 μl up and down 4×; (iii) tips are washed 4×10 μl in DMSO, 2×20 μl in other DMSO; (iv) steps i-iii are repeated with transfer to right half of assay plate; (v) steps i-iv are repeated with each compound/assay plate until all plates are completed.
10 μl/well Start Mix is added and incubated at room temperature on shaker for 2 minutes (1 hour total reaction time).
Stop Solution in Dilution Buffer: 120 mM EDTA
Antibody Mix in Dilution Buffer: 4.86 μg/ml DyLight 647 Streptavidin (Pierce 21824); 1 μg/ml Lance Eu-Anti-Phosphotyrosine (PerkinElmer AD0069).
5 μl/well[…] is added and incubated at room temperature on shaker for 2 minutes.
[…] Antibody Mix is added and Incubated at room temperature on shaker for 2 minutes (4 hours to overnight total time).
Plates are read at 665 nm and 620 nm emission on Analyst GT protocol HTRF_SP_A or EnVision protocol Steve's TR-FRET.

Drawing on patent US7968556B2, “Heteroaryl compounds, compositions thereof, and methods of treatment therewith” (Signal Pharmaceuticals, LLC, priority 2006, dated 2011), this text covers melting point and IC50 for 8 compounds.

Bounds are passed on as bounds.

Regarding `COc1ccccc1-n1c(=O)[nH]c2c(C(N)=O)nc(-c3cccc4[nH]cnc34)nc21` [Compound 99, 2-(1H-benzo[d]imidazol-4-yl)-9-(2-methoxyphenyl)-8-oxo-8,9-dihydro-7H-purine-6-carboxamide], the melting point came to 312 °C. Further, the IC50 at Tyk2 was in the range of 0.1 to 5 µM. The compound also came in with an IC50 against mTOR of over 30 µM.

`COc1ccccc1-n1c(=O)[nH]c2c(C(N)=O)nc(-c3cccc(O)c3Cl)nc21` [Compound 54, 2-(2-Chloro-3-hydroxyphenyl)-9-(2-methoxyphenyl)-8-oxo-7-hydropurine-6-carbox amide]: the melting point lay in the range of 331 to 334 °C. In addition, on Syk, the IC50 lay in the range of 0.1 to 5 µM. Moreover, the IC50 at mTOR is 0.1 to 5 µM.

The compound `COc1ccccc1-n1c(=O)[nH]c2c(C(N)=O)nc(-c3cccc(O)c3F)nc21` [Compound 77, 2-(2-Fluoro-3-hydroxyphenyl)-9-(2-methoxyphenyl)-8-oxo-7-hydropurine-6-carbox-amide] registered a melting point of over 300 °C. In addition, the IC50 against Tyk2 lay within 0.1 to 5 µM. On mTOR, this compound came in with an IC50 of 0.1 to 5 µM.

`CNC(=O)c1nc(-c2cccc(O)c2)nc2c1[nH]c(=O)n2-c1ccccc1OC` [Compound 42, [2-(3-Hydroxyphenyl)-9-(2-methoxyphenyl)-8-oxo(7-hydropurin-6-yl)]-N-methylcarbox-amide]: the melting point amounted to 339 °C. On Tyk2, this compound returned an IC50 of over 30 µM. This compound registered an IC50 against mTOR of over 30 µM.

In the case of `NC(=O)c1nc(-c2cccc(O)c2)nc2c1[nH]c(=O)n2[C@H]1CC[C@H](O)CC1` [Compound 47, 9-(trans-4-Hydroxycyclohexyl)-2-(3-hydroxyphenyl)-8-oxo-8,9-dihydro-7H-purine-6-carboxamide], the melting point fell in the range of 366 to 368 °C. This compound gave an IC50 on Tyk2 of 10.1 to 20 µM. In addition, the IC50 against mTOR is 0.1 to 5 µM.

Take `COc1ccccc1-n1c(=O)[nH]c2c(C(N)=O)nc(-c3cccc(N)c3)nc21` [Compound 38, 2-(3-aminophenyl)-9-(2-methoxyphenyl)-8-oxo-8,9-dihydro-7H-purine-6-carboxamide]: the melting point lay within 284 to 285 °C. The IC50 against Syk was over 30 µM.

`NC(=O)c1nc(-c2cccc(O)c2)nc2c1[nH]c(=O)n2-c1c(Cl)cccc1Cl` [Compound 69, 9-(2,6-Dichlorophenyl)-2-(3-hydroxyphenyl)-8-oxo-7-hydropurine-6-carboxamide] displayed a melting point of 290 to 292 °C. Also, the IC50 against Tyk2 lay within 0.1 to 5 µM. This compound displayed an IC50 against mTOR of 0.1 to 5 µM.

`NC(=O)c1nc(-c2ccc3nc[nH]c3c2)nc2c1[nH]c(=O)n2-c1ccccc1F` [Compound 101, 2-(1H-benzo[d]imidazol-6-yl)-9-(2-fluorophenyl)-8-oxo-8,9-dihydro-7H-purine-6-carboxamide] gave a melting point of 278 °C. The same compound had an IC50 against Syk of 10.1 to 20 µM. This compound displayed an IC50 against mTOR of 0.1 to 5 µM.
